# Where “and” joins values, the source holds several entries; their conditions need not be identical. Equal values may be shown once.
# Legend:
# [1] = system: human GnRH receptor (hGnRH-R) positive cell line 5C6; experiment: GnRH-receptor dependent proliferation assay, 5C6; format: cell-based; details: 30 min exposure, vital cells vs untreated control = 100%
# Description: (§1) The dose-dependent receptor-mediated inhibition of cell proliferation of selected compounds of the invention was investigated.
# (§2) To study these effects a human GnRH receptor (hGnRH-R) positive cell line (5C6; Beckers et al., Eur. J. Biochem. 1995, 231: 535-543) and an hGnRH-R negative cell line (LTK^−; ECACC No. 85011432) was used.
# (§3) Respective cells were exposed to 1 mL culture medium in 24 well multi-titer-plates (MTPs) with a cell number of 15000 cells per well. The cell number is adjusted in such a way that after 5 days of testing the untreated control cells are still in the exponential growth phase.
# (§4) Test compounds are given to the cultured cells after 4 hours of initial growth (adherence) in a volume of 100 μL to yield the final concentrations given in table 2.
# (§5) After 30 min of incubation at 37° C. the entire culture medium is sucked off and the cells are washed twice with culture medium without test compounds. After the washing the cells are placed into an incubator (at 37° C., 5% CO2 and 95% atmospheric humidity) and incubated for further 4 days.
# (§6) For the determination of the cell number after incubation the cells are detached using trypsin/EDTA and centrifuged. The number of vital cells and the total cell number are counted using a Vi-Cell Analyzer (Beckman Coulter).
# (§7) The number of vital cells is analyzed in comparison with untreated control cells (=100%). Only cell groups (respective wells) are considered of which the total cell viability is more than 90%, i.e. inhibition of cell proliferation by unspecific toxicity can be excluded.
# (§8) The proliferation status of untreated control cells after 96 hours is set to 100%.
# [2] = system: lung carcinoma cell line NCI-H460; experiment: cells; format: cell-based, human; details: XTT, 45 h incubation
# Excerpt: (§9) Selected compounds of the invention were investigated for their antiproliferative activity in a proliferation test on established tumor cell lines.
# (§10) The test used determines the cellular dehydrogenase activity and makes possible a determination of the cell vitality and indirectly the cell count.
# (§11) The cell lines used are the human cervical carcinoma cell line KB/HeLa (ATCC CCL17), the ovarian adenocarcinoma cell line SKOV-3 (ATCC HTB77), the human glioblastoma cell line SF-268 (NCI-503138) and the lung carcinoma cell line NCI-H460 (NCI-503473). In addition, for the investigation of the cell cycle-specific action of the compounds of the invention, an RKOp27 cell system was used (Schmidt M et al. Oncogene 2000, 19(20): 2423-2429). RKO is a human colon carcinoma cell line (ATCC CRL-2577), in which the cell cycle inhibitor p27^kip1 induced by means of the ecdysone expression system is expressed and can be led to a cell cycle arrest specifically in […]. A nonspecifically acting substance inhibits the proliferation independently of whether the RKO cell is or is not arrested in G1 or G2. Cell cycle-specific substances such as, for example, tubulin inhibitors are, however, only cytotoxic if cells are not arrested and the cell cycle is passed through.
# (§12) The adherently growing tumor cell lines KB/HeLa, SKOV-3, SF-268 and NCI-H460 were cultured under standard conditions in an incubator at 37° C., 5% CO2 and 95% atmospheric humidity. On experimental day 1, the cells are detached using trypsin/EDTA and pelleted by centrifugation. Subsequently, the cell pellet is resuspended in the respective culture medium at the corresponding cell count and reacted in a 96-well microtiter plate. The plates are then cultured overnight in the incubator. The test substances are prepared as 1 mg/ml stock solutions in DMSO and diluted to the appropriate concentrations on experimental day 2 using culture medium. The substances in culture medium are then added to the cells and incubated in the incubator for 45 h. As a control, cells which are not treated with test substance are used. For the XTT assay, 1 mg/ml of XTT (sodium 3′-[1-(phenylaminocarbonyl)-3,4-tetrazolium]-bis(4-methoxy-6-nitro)benzenesulfonic acid) is dissolved in RPMI-1640 medium without Phenol Red. Additionally, a 0.383 mg/ml PMS (N-methyldibenzopyrazine methylsulfate) solution in phosphate-buffered saline solution (PBS) is prepared. On experimental day 4, 75 μl/well of XTT-PMS mixture is pipetted onto the cell plates which in the meantime have been incubated with the test substances for 45 h. For this, shortly before use, the XTT solution is mixed with the PMS solution in the ratio 50:1 (vol:vol). The cell plates are then incubated in the incubator for a further 3 h and the optical density (OD490 nm) is determined in a photometer. By means of the OD490 nm determined, the percentage inhibition is calculated relative to the control and plotted semilogarithmically in the form of a concentration-action curve. The IC50 is calculated by means of a regression analysis from the concentration-action curve using the program Graphpad Prism.
# [3] = system: ovarian adenocarcinoma cell line SKOV-3; experiment: cells; format: cell-based, human; details: XTT, 45 h incubation
# Excerpt: as §9, §10, §11, §12
# [4] = system: RKOp27 cells (human colon carcinoma cell line RKO), p27kip1 not induced; experiment: cells; format: cell-based; details: without expression of p27kip1, XTT, 45 h
# Excerpt: as §11, §12
# (§13) The assay is carried out in 96-well plates. […] By comparison of the activity on induced and noninduced cells, conclusions on the mechanism of action (cell cycle specificity) of the therapeutics can be drawn. […] cells are inoculated in approximately three-fold higher cell count, since division no longer takes place during the assay in comparison with uninduced cells (20000 cells/well induced, 6250 cells/well not induced). The controls are untreated cells (+/−induction). The induction is carried out with 3 μM muristerone A. On the 1st day, the cells are exposed (+/−muristerone A) and incubated at 37° C. for 24 h. On day 2, the test substance is added (control DMSO) and incubation is continued at 37° C. for a further 45 h before a standard XTT assay is carried out.
# [5] = system: RKOp27 cells (human colon carcinoma cell line RKO), p27kip1 induced; experiment: cells; format: cell-based; details: p27kip1 induced with 3 μM muristerone A, XTT, 45 h
# Excerpt: as §11, §12, §13
# [6] = system: human cervical carcinoma cell line KB/HeLa; experiment: cells; format: cell-based; details: XTT, 45 h incubation
# Excerpt: as §9, §10, §11, §12
# [7] = system: human glioblastoma cell line SF-268; experiment: cells; format: cell-based; details: XTT, 45 h incubation
# Excerpt: as §9, §10, §11, §12
# [8] = system: hGnRH-R negative cell line LTK−; experiment: GnRH-receptor dependent proliferation assay, LTK-; format: cell-based; details: 30 min exposure, vital cells vs untreated control = 100%
# Description: as §1, §2, §3, §4, §5, §6, §7, §8
Compound,"proliferation status after 96 hours, cell line 5C6, 100 nM [1]",IC50 NCI-H460 [2],IC50 SKOV-3 [3],IC50 RKOp27 [4],IC50 RKOp27 induced [5],IC50 KB/HELA [6],IC50 SF-268 [7],"proliferation status after 96 hours, cell line LTK−, 100 nM [8]","proliferation status after 96 hours, cell line 5C6, 0.1 nM [1]","proliferation status after 96 hours, cell line 5C6, 1 nM [1]","proliferation status after 96 hours, cell line 5C6, 10 nM [1]","proliferation status after 96 hours, cell line LTK−, 0.1 nM [8]","proliferation status after 96 hours, cell line LTK−, 1 nM [8]","proliferation status after 96 hours, cell line LTK−, 10 nM [8]","IC50 ([2]; Homo sapiens, NCI-H460, read-out: IC50 NCI-H460)","IC50 ([3]; Homo sapiens, SK-OV-3, read-out: IC50 SKOV-3)","IC50 ([4]; Homo sapiens, RKOp27, read-out: IC50 RKOp27)","IC50 ([5]; Homo sapiens, RKOp27, read-out: IC50 RKOp27 induced)","IC50 ([6]; Homo sapiens, HeLa, read-out: IC50 KB/HELA)","IC50 ([7]; Homo sapiens, SF-268, read-out: IC50 SF-268)"
"COc1cccc2c1C(=O)c1c(O)c3c(c(O)c1C2=O)C[C@@](O)(C(=O)COC(=O)CCCC(=O)NCCCC[C@@H](NC(=O)[C@H](Cc1ccc(O)cc1)NC(=O)[C@H](CO)NC(=O)[C@H](Cc1c[nH]c2ccccc12)NC(=O)[C@H](Cc1c[nH]cn1)NC(=O)[C@@H]1CCC(=O)N1)C(=O)N[C@@H](CC(C)C)C(=O)N[C@@H](CCCNC(=N)N)C(=O)N1CCC[C@H]1C(=O)NCC(N)=O)C[C@@H]3O[C@H]1C[C@H](N)[C@H](O)[C@H](C)O1 [AN-152, reference compound]",43.9% and 42.1%,0.558 µg/mL,1.238 µg/mL,0.587 µg/mL,0.632 µg/mL,0.871 µg/mL,1.258 µg/mL,102.3% and 101.3%,–,–,–,–,–,–,–,–,–,–,–,–
"C/C=C/[C@H](OC(=O)CCC(=O)NCCCC[C@H](NC(=O)[C@H](Cc1ccc(O)cc1)NC(=O)[C@H](CO)NC(=O)[C@H](Cc1c[nH]c2ccccc12)NC(=O)[C@H](Cc1cnc[nH]1)NC(=O)[C@@H]1CCC(=O)N1)C(=O)N[C@@H](CC(C)C)C(=O)N[C@@H](CCCNC(=N)N)C(=O)N1CCC[C@H]1C(=O)NCC(N)=O)C(C)(C)[C@@H]1C\C=C/C=C\C=C\[C@H](OC)Cc2nc(co2)C(=O)O[C@H](C(C)(C)[C@H](/C=C/C)OC(=O)CCC(=O)NCCCC[C@H](NC(=O)[C@H](Cc2ccc(O)cc2)NC(=O)[C@H](CO)NC(=O)[C@H](Cc2c[nH]c3ccccc23)NC(=O)[C@H](Cc2cnc[nH]2)NC(=O)[C@@H]2CCC(=O)N2)C(=O)N[C@@H](CC(C)C)C(=O)N[C@@H](CCCNC(=N)N)C(=O)N2CCC[C@H]2C(=O)NCC(N)=O)C/C=C\[C@H]2O[C@H]2/C=C/C=C\c2nc(co2)C(=O)O1 [compound 15, Disorazole A1 Bis Hemi Succinyl [D-Lys^6]LHRH]",43.0%,>3.16 µg/mL,>3.16 µg/mL,ca. 3.16 μg/ml,>3.16 µg/mL,>3.16 µg/mL,>3.16 µg/mL,101.7%,95.1%,98.6%,66.6%,108.6%,111.3%,108.0%,–,–,–,–,–,–
"C/C=C/C(OC(=O)CCCC(=O)NCCCC[C@H](NC(=O)[C@H](Cc1ccc(O)cc1)NC(=O)[C@H](CO)NC(=O)[C@H](Cc1c[nH]c2ccccc12)NC(=O)[C@H](Cc1cnc[nH]1)NC(=O)[C@@H]1CCC(=O)N1)C(=O)N[C@@H](CC(C)C)C(=O)N[C@@H](CCCNC(=N)N)C(=O)N1CCC[C@H]1C(=O)NCC(N)=O)C(C)(C(=O)OC)C1C\C=C/C=C/C=C/c2nc(co2)C(=O)OC(C(C)(C(=O)OC)C(/C=C/C)OC(=O)CCCC(=O)NCCCC[C@H](NC(=O)[C@H](Cc2ccc(O)cc2)NC(=O)[C@H](CO)NC(=O)[C@H](Cc2c[nH]c3ccccc23)NC(=O)[C@H](Cc2cnc[nH]2)NC(=O)[C@@H]2CCC(=O)N2)C(=O)N[C@@H](CC(C)C)C(=O)N[C@@H](CCCNC(=N)N)C(=O)N2CCC[C@H]2C(=O)NCC(N)=O)C\C=C/C=C/C=C/c2nc(co2)C(=O)O1 (stereo partly drawn) [compound 17, Disorazole Z Bis Hemi Glutaryl [D-Lys^6]LHRH]",41.7%,>3.16 µg/mL,>3.16 µg/mL,>3.16 µg/mL,>3.16 µg/mL,>3.16 µg/mL,>3.16 µg/mL,98.0%,95.5%,85.9%,58.5%,100.9%,99.8%,98.8%,–,–,–,–,–,–
"COc1cccc2c1C(=O)c1c(O)c3c(c(O)c1C2=O)C[C@@](O)(C(=O)CO)C[C@@H]3O[C@H]1C[C@H](N)[C@H](O)[C@H](C)O1 [doxorubicin, reference compound]",–,–,–,–,–,–,–,–,–,–,–,–,–,–,0.105 µg/mL,0.347 µg/mL,0.082 µg/mL,0.124 µg/mL,0.32 µg/mL,0.305 µg/mL
"Disorazole E1 Mono Hemi Succinyl [D-Lys^6]LHRH, Both Regio-Isomers [compounds 13/14]",–,0.0128 µg/mL,0.01685 µg/mL,0.01724 µg/mL,>3.16 µg/mL,0.01891 µg/mL,0.05566 µg/mL,27.0%,–,–,–,98.6%,98.8%,93.2%,–,–,–,–,–,–
